Results from PubChem BioAssay (NCI).
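A five-concentration, 48-hour dose response in 96-well plates underlies each endpoint, interpolated linearly between surrounding concentrations. GI50: concentration for 50% inhibition of growth. TGI: concentration producing complete growth inhibition.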

Experiments:
Assay in all cases: DTP human tumour cell line panel, 48 h
SK-MEL-28 melanoma = tested on: SK-MEL-28 melanoma
K-562 leukemia = tested on: K-562 leukemia
ACHN renal = tested on: ACHN renal
SK-MEL-5 melanoma = tested on: SK-MEL-5 melanoma
IGROV1 ovarian = tested on: IGROV1 ovarian
HL-60(TB) leukemia = tested on: HL-60(TB) leukemia
SF-539 CNS = tested on: SF-539 CNS
HCT-15 colon = tested on: HCT-15 colon
SR leukemia = tested on: SR leukemia
OVCAR-4 ovarian = tested on: OVCAR-4 ovarian
NCI-H522 lung = tested on: NCI-H522 lung
UACC-257 melanoma = tested on: UACC-257 melanoma
UO-31 renal = tested on: UO-31 renal
SNB-19 CNS = tested on: SNB-19 CNS
RXF 393 renal = tested on: RXF 393 renal
MALME-3M melanoma = tested on: MALME-3M melanoma
MOLT-4 leukemia = tested on: MOLT-4 leukemia
M14 melanoma = tested on: M14 melanoma
SW-620 colon = tested on: SW-620 colon
MDA-MB-231 breast = tested on: MDA-MB-231 breast
NCI-H23 lung = tested on: NCI-H23 lung
RPMI-8226 leukemia = tested on: RPMI-8226 leukemia
MDA-N = tested on: MDA-N
HCC-2998 colon = tested on: HCC-2998 colon
HOP-92 NSCLC = tested on: HOP-92 NSCLC
SN12C renal = tested on: SN12C renal
MDA-MB-435 = tested on: MDA-MB-435
MCF7 breast = tested on: MCF7 breast
DU-145 prostate = tested on: DU-145 prostate
U251 CNS = tested on: U251 CNS
SF-295 CNS = tested on: SF-295 CNS
COLO 205 colon = tested on: COLO 205 colon
EKVX NSCLC = tested on: EKVX NSCLC
UACC-62 melanoma = tested on: UACC-62 melanoma
HT29 colon = tested on: HT29 colon
CCRF-CEM leukemia = tested on: CCRF-CEM leukemia
NCI-H460 lung = tested on: NCI-H460 lung
HCT-116 colon = tested on: HCT-116 colon
BT-549 breast = tested on: BT-549 breast
KM12 colon = tested on: KM12 colon
T-47D breast = tested on: T-47D breast
OVCAR-8 ovarian = tested on: OVCAR-8 ovarian
OVCAR-5 ovarian = tested on: OVCAR-5 ovarian
HOP-62 NSCLC = tested on: HOP-62 NSCLC
A549 NSCLC = tested on: A549 NSCLC
NCI/ADR-RES ovarian = tested on: NCI/ADR-RES ovarian
SF-268 CNS = tested on: SF-268 CNS
A498 renal = tested on: A498 renal
786-0 renal = tested on: 786-0 renal
SK-MEL-2 melanoma = tested on: SK-MEL-2 melanoma
SNB-75 CNS = tested on: SNB-75 CNS
PC-3 prostate = tested on: PC-3 prostate
TK-10 renal = tested on: TK-10 renal
OVCAR-3 ovarian = tested on: OVCAR-3 ovarian
CAKI-1 renal = tested on: CAKI-1 renal
SK-OV-3 ovarian = tested on: SK-OV-3 ovarian

Structure (SMILES): Oc1cc2cccc[n+]2c2cccc(Cl)c12
- GI50 (SK-MEL-28 melanoma): 21.8 µM
- GI50 (K-562 leukemia): 25.4 µM
- TGI (K-562 leukemia): 76 µM
- GI50 (ACHN renal): 21.7 µM
- TGI (ACHN renal): 52.5 µM
- GI50 (SK-MEL-5 melanoma): 19.7 µM
- TGI (SK-MEL-5 melanoma): 34.7 µM
- GI50 (IGROV1 ovarian): 31.4 µM
- GI50 (HL-60(TB) leukemia): 35.8 µM
- GI50 (SF-539 CNS): 71.8 µM
- GI50 (HCT-15 colon): 49.4 µM
- GI50 (SR leukemia): 67.5 µM
- GI50 (OVCAR-4 ovarian): 16.2 µM
- TGI (OVCAR-4 ovarian): 39.5 µM
- GI50 (NCI-H522 lung): 94.8 µM
- GI50 (UACC-257 melanoma): 21.7 µM
- TGI (UACC-257 melanoma): 48.4 µM
- GI50 (UO-31 renal): 31.3 µM
- TGI (UO-31 renal): 93 µM
- GI50 (SNB-19 CNS): 92.3 µM
- GI50 (RXF 393 renal): 26.1 µM
- TGI (RXF 393 renal): 74.6 µM
- GI50 (MALME-3M melanoma): 18.4 µM
- TGI (MALME-3M melanoma): 40.4 µM
- GI50 (MOLT-4 leukemia): 34.9 µM
- GI50 (M14 melanoma): 66.8 µM
- GI50 (SW-620 colon): 32.8 µM
- GI50 (MDA-MB-231 breast): 91.5 µM
- GI50 (NCI-H23 lung): 25.2 µM
- TGI (NCI-H23 lung): 72.5 µM
- GI50 (RPMI-8226 leukemia): 40.4 µM
- GI50 (MDA-N): 16.9 µM
- TGI (MDA-N): 33.5 µM
- GI50 (HCC-2998 colon): 52.4 µM
- GI50 (HOP-92 NSCLC): 15.8 µM
- TGI (HOP-92 NSCLC): 71.5 µM
- GI50 (SN12C renal): 17.2 µM
- TGI (SN12C renal): 45.4 µM
- GI50 (MDA-MB-435): 17.4 µM
- TGI (MDA-MB-435): 40.8 µM
- GI50 (MCF7 breast): 16.7 µM
- TGI (MCF7 breast): 36.5 µM
- GI50 (DU-145 prostate): 62.3 µM
- GI50 (U251 CNS): 42 µM
- GI50 (SF-295 CNS): 95.3 µM
- GI50 (COLO 205 colon): 26.3 µM
- TGI (COLO 205 colon): 87.3 µM
- GI50 (EKVX NSCLC): 38.4 µM
- GI50 (UACC-62 melanoma): 32.6 µM
- GI50 (HT29 colon): 40.7 µM
- GI50 (CCRF-CEM leukemia): 26.1 µM
- TGI (CCRF-CEM leukemia): 73.7 µM
- GI50 (NCI-H460 lung): 82.1 µM
- GI50 (HCT-116 colon): 55.7 µM
- GI50 (BT-549 breast): 50.6 µM

Structure (SMILES): NC1CC(=O)c2cc(Br)sc21 (stereo unspecified)
- TGI (SK-MEL-28 melanoma): > 100 µM
- TGI (KM12 colon): > 100 µM
- TGI (T-47D breast): > 100 µM
- TGI (K-562 leukemia): > 100 µM
- TGI (ACHN renal): > 100 µM
- TGI (SK-MEL-5 melanoma): > 100 µM
- TGI (IGROV1 ovarian): > 100 µM
- TGI (HL-60(TB) leukemia): > 100 µM
- TGI (SF-539 CNS): > 100 µM
- TGI (OVCAR-8 ovarian): > 100 µM
- TGI (HCT-15 colon): > 100 µM
- TGI (SR leukemia): > 100 µM
- TGI (OVCAR-5 ovarian): > 100 µM
- TGI (HOP-62 NSCLC): > 100 µM
- TGI (UACC-257 melanoma): > 100 µM
- TGI (A549 NSCLC): > 100 µM
- TGI (UO-31 renal): > 100 µM
- TGI (SNB-19 CNS): > 100 µM
- TGI (RXF 393 renal): > 100 µM
- TGI (NCI/ADR-RES ovarian): > 100 µM
- TGI (MALME-3M melanoma): > 100 µM
- TGI (SF-268 CNS): > 100 µM
- TGI (MOLT-4 leukemia): > 100 µM
- TGI (M14 melanoma): > 100 µM
- TGI (SW-620 colon): > 100 µM
- TGI (A498 renal): > 100 µM
- TGI (MDA-MB-231 breast): > 100 µM
- TGI (786-0 renal): > 100 µM
- TGI (SK-MEL-2 melanoma): > 100 µM
- TGI (RPMI-8226 leukemia): > 100 µM
- TGI (MDA-N): > 100 µM
- TGI (HCC-2998 colon): > 100 µM
- TGI (SN12C renal): > 100 µM
- TGI (MDA-MB-435): > 100 µM
- TGI (MCF7 breast): > 100 µM
- TGI (DU-145 prostate): > 100 µM
- TGI (SNB-75 CNS): > 100 µM
- TGI (U251 CNS): > 100 µM
- TGI (COLO 205 colon): > 100 µM
- TGI (PC-3 prostate): > 100 µM
- TGI (EKVX NSCLC): > 100 µM
- TGI (UACC-62 melanoma): > 100 µM
- TGI (HT29 colon): > 100 µM
- TGI (CCRF-CEM leukemia): > 100 µM
- TGI (NCI-H460 lung): > 100 µM
- TGI (HCT-116 colon): > 100 µM
- TGI (TK-10 renal): > 100 µM
- TGI (BT-549 breast): > 100 µM
- TGI (OVCAR-3 ovarian): > 100 µM
- TGI (CAKI-1 renal): > 100 µM
- TGI (SK-OV-3 ovarian): > 100 µM
